Legend:
HEK293 cells [1] = test: MTT test of cellular metabolism under hydrogen peroxide oxidative stress; assay type: cell-based, Human; conditions: HEK293, 300 μM hydrogen peroxide; 40 μM myoinositol + 100 μM D-chiro inositol and/or 10 μM resveratrol
Description: (§1) The measures have been performed in triplicate. Left (MTT) and (cell count). Human embryonic kidney HEK293 cells were grown in adherence in a growth medium consisting of DMEM supplemented with 10% fetal bovine serum (FBS) for 24 hours before being treated with 300 μM hydrogen peroxide in the presence of inositols (MI-D-chirol, 40 μM myoinositol and 100 μM D-chiro inositol, molar ratio MI/D-ChiroI=0.4) or resveratrol (10 μM) or in a combination of inositol and resveratrol. The effects of treatments on cellular metabolism were evaluated by the MTT test, while on the proliferation by cell count in Burker's chamber and all effects were compared with growing cells under controlled conditions (DMEN+10% FBS). The inositol concentrations were chosen based on the myo-inositol (MI) plasma concentration (26), and considering the molar ratio MI/D-Chirol=0.4 according to the invention, while the resveratrol concentration (10 μM) was chosen considering the plasma concentration expected after a treatment regime with resveratrol supported on hydroxide such as that from […]. […] Oxidative stress aggravates the pathological state of PCOS along with hormonal imbalance (27).

HEK293 cells [2] = test: Cell count in Burker's chamber (proliferation) under hydrogen peroxide oxidative stress; assay type: cell-based, Human; conditions: HEK293, 300 μM hydrogen peroxide; 40 μM myoinositol + 100 μM D-chiro inositol and/or 10 μM resveratrol
Description: as §1

Oc1ccc(C=Cc2cc(O)cc(O)c2)cc1 [resveratrol]
effect on the anti-proliferative effect of oxidative stress, metabolic activity (MTT) (HEK293 cells [1]): only partially counteracted
effect on the anti-proliferative effect of oxidative stress, cell number (cell count) (HEK293 cells [2]): only partially counteracted

Source: patent publication US11246834B2, “Nutraceutical or pharmaceutical composition for use in the treatment of polycystic ovary syndrome or of diseases or disorders related thereto” (S&R FARMACEUTICI S.P.A., priority 2016, dated 2022)
